Experimental data from the NIST ThermoML archive (doi:10.1021/je060353z).

Assay: xn = mol fraction of the nth substance listed
Details: 101 kPa, Liquid

Clc1ccccc1 [chlorobenzene] + CCCCCCO
Details | mass density [kg/m3] | speed of sound [m/s] | viscosity [mPa·s]
298.15 K, x1 = 0.1144 | 842.629 | 1297.7 | 3.576
298.15 K, x1 = 0.2338 | 872.274 | 1289.8 | 2.746
298.15 K, x1 = 0.3573 | 904.193 | 1281.6 | 2.107
298.15 K, x1 = 0.4628 | 932.67 | 1274.8 | 1.699
298.15 K, x1 = 0.5568 | 959.077 | 1269.2 | 1.417
298.15 K, x1 = 0.6542 | 987.534 | 1264.3 | 1.184
298.15 K, x1 = 0.7457 | 1015.51 | 1260.9 | 1.008
298.15 K, x1 = 0.8353 | 1044.18 | 1259.3 | 0.873
298.15 K, x1 = 0.9171 | 1071.62 | 1260.9 | 0.788
298.15 K, x1 = 1 | 1100.97 | 1268 | 0.757
303.15 K, x1 = 0.1144 | 839.289 | 1280.6 | 3.096
303.15 K, x1 = 0.2338 | 868.705 | 1272.5 | 2.414
303.15 K, x1 = 0.3573 | 900.355 | 1264 | 1.87
303.15 K, x1 = 0.4628 | 928.591 | 1257.1 | 1.515
303.15 K, x1 = 0.5568 | 954.767 | 1251.6 | 1.274
303.15 K, x1 = 0.6542 | 982.986 | 1246.6 | 1.079
303.15 K, x1 = 0.7457 | 1010.71 | 1243.1 | 0.935
303.15 K, x1 = 0.8353 | 1039.12 | 1241.5 | 0.824
303.15 K, x1 = 0.9171 | 1066.27 | 1243.2 | 0.752
303.15 K, x1 = 1 | 1095.1 | 1249.4 | 0.714
308.15 K, x1 = 0.1144 | 835.421 | 1263.6 | 2.695
308.15 K, x1 = 0.2338 | 864.604 | 1255.4 | 2.123
308.15 K, x1 = 0.3573 | 895.988 | 1246.7 | 1.665
308.15 K, x1 = 0.4628 | 923.985 | 1239.7 | 1.369
308.15 K, x1 = 0.5568 | 949.942 | 1233.9 | 1.165
308.15 K, x1 = 0.6542 | 977.948 | 1228.9 | 0.997
308.15 K, x1 = 0.7457 | 1005.42 | 1225.4 | 0.87
308.15 K, x1 = 0.8353 | 1033.55 | 1224.3 | 0.772
308.15 K, x1 = 0.9171 | 1060.41 | 1225.8 | 0.711
308.15 K, x1 = 1 | 1089.08 | 1230.9 | 0.677
313.15 K, x1 = 0.1144 | 831.574 | 1246.5 | 2.35
313.15 K, x1 = 0.2338 | 860.561 | 1238.5 | 1.865
313.15 K, x1 = 0.3573 | 891.747 | 1229.8 | 1.478
313.15 K, x1 = 0.4628 | 919.571 | 1222.9 | 1.223
313.15 K, x1 = 0.5568 | 945.388 | 1216.7 | 1.044
313.15 K, x1 = 0.6542 | 973.227 | 1211.6 | 0.896
313.15 K, x1 = 0.7457 | 1000.53 | 1207.9 | 0.78
313.15 K, x1 = 0.8353 | 1028.46 | 1206.6 | 0.692
313.15 K, x1 = 0.9171 | 1055.09 | 1208.2 | 0.637
313.15 K, x1 = 1 | 1083.66 | 1212.6 | 0.617

CCCCCCCCCCO [decan-1-ol] + Clc1ccccc1
x2 = 0
Details | mass density [kg/m3] | speed of sound [m/s] | viscosity [mPa·s]
298.15 K | 826.762 | 1380 | 11.83
303.15 K | 822.853 | 1365 | 9.754
308.15 K | 819.427 | 1346.1 | 8.135
313.15 K | 815.983 | 1329.3 | 6.842

CCCCCCCCCO [nonan-1-ol] + Clc1ccccc1
Details | mass density [kg/m3] | speed of sound [m/s] | viscosity [mPa·s]
298.15 K, x2 = 0 | 824.478 | 1365.5 | 9.715
298.15 K, x2 = 0.1529 | 850.648 | 1350.5 | 6.576
298.15 K, x2 = 0.3008 | 879.504 | 1333.3 | 4.488
298.15 K, x2 = 0.4379 | 910.112 | 1316.2 | 3.135
298.15 K, x2 = 0.5505 | 938.617 | 1302.2 | 2.329
298.15 K, x2 = 0.6413 | 964.273 | 1291.1 | 1.828
298.15 K, x2 = 0.7273 | 991.186 | 1281.2 | 1.455
298.15 K, x2 = 0.8031 | 1017.42 | 1274 | 1.192
298.15 K, x2 = 0.8744 | 1044.71 | 1269 | 0.999
298.15 K, x2 = 0.937 | 1071.14 | 1267.1 | 0.864
303.15 K, x2 = 0 | 821.044 | 1353.6 | 7.927
303.15 K, x2 = 0.1529 | 846.995 | 1332.6 | 5.56
303.15 K, x2 = 0.3008 | 875.625 | 1315.8 | 3.876
303.15 K, x2 = 0.4379 | 906.014 | 1299.5 | 2.752
303.15 K, x2 = 0.5505 | 934.309 | 1286 | 2.07
303.15 K, x2 = 0.6413 | 959.757 | 1275.1 | 1.646
303.15 K, x2 = 0.7273 | 986.433 | 1265.4 | 1.325
303.15 K, x2 = 0.8031 | 1012.44 | 1257.7 | 1.097
303.15 K, x2 = 0.8744 | 1039.48 | 1252 | 0.924
303.15 K, x2 = 0.937 | 1065.72 | 1249.1 | 0.802
308.15 K, x2 = 0 | 817.582 | 1331.8 | 6.664
308.15 K, x2 = 0.1529 | 843.265 | 1315.5 | 4.745
308.15 K, x2 = 0.3008 | 871.65 | 1298.5 | 3.365
308.15 K, x2 = 0.4379 | 901.759 | 1281.7 | 2.433
308.15 K, x2 = 0.5505 | 929.764 | 1267.7 | 1.858
308.15 K, x2 = 0.6413 | 954.969 | 1256.3 | 1.493
308.15 K, x2 = 0.7273 | 981.393 | 1246.3 | 1.205
308.15 K, x2 = 0.8031 | 1007.14 | 1238.5 | 1.014
308.15 K, x2 = 0.8744 | 1033.95 | 1233 | 0.869
308.15 K, x2 = 0.937 | 1059.96 | 1231.5 | 0.764
313.15 K, x2 = 0 | 814.098 | 1315 | 5.645
313.15 K, x2 = 0.1529 | 839.584 | 1299.4 | 4.074
313.15 K, x2 = 0.3008 | 867.761 | 1282 | 2.935
313.15 K, x2 = 0.4379 | 897.663 | 1264.9 | 2.152
313.15 K, x2 = 0.5505 | 925.493 | 1251 | 1.658
313.15 K, x2 = 0.6413 | 950.508 | 1239.8 | 1.346
313.15 K, x2 = 0.7273 | 976.738 | 1229.8 | 1.094
313.15 K, x2 = 0.8031 | 1002.28 | 1221.8 | 0.919
313.15 K, x2 = 0.8744 | 1028.88 | 1215.6 | 0.775
313.15 K, x2 = 0.937 | 1054.7 | 1213.3 | 0.676

Clc1ccccc1 [chlorobenzene] + CCCCCCCCO
Details | mass density [kg/m3] | speed of sound [m/s] | viscosity [mPa·s]
298.15 K, x1 = 0.1423 | 848.715 | 1334.1 | 5.448
298.15 K, x1 = 0.2807 | 877.644 | 1319.1 | 3.87
298.15 K, x1 = 0.4121 | 908.104 | 1303.7 | 2.788
298.15 K, x1 = 0.5237 | 936.698 | 1291.1 | 2.116
298.15 K, x1 = 0.6158 | 962.489 | 1281.2 | 1.692
298.15 K, x1 = 0.7073 | 990.466 | 1272.7 | 1.363
298.15 K, x1 = 0.7885 | 1017.46 | 1267 | 1.132
298.15 K, x1 = 0.8662 | 1045.68 | 1264 | 0.956
298.15 K, x1 = 0.9331 | 1072.02 | 1264 | 0.841
298.15 K, x1 = 1 | 1100.97 | 1268 | 0.757
303.15 K, x1 = 0.1423 | 844.912 | 1317.5 | 4.64
303.15 K, x1 = 0.2807 | 873.625 | 1303.4 | 3.352
303.15 K, x1 = 0.4121 | 903.886 | 1289.6 | 2.455
303.15 K, x1 = 0.5237 | 932.283 | 1277.8 | 1.89
303.15 K, x1 = 0.6158 | 957.91 | 1268.6 | 1.528
303.15 K, x1 = 0.7073 | 985.68 | 1260 | 1.243
303.15 K, x1 = 0.7885 | 1012.47 | 1253.4 | 1.04
303.15 K, x1 = 0.8662 | 1040.47 | 1248.7 | 0.885
303.15 K, x1 = 0.9331 | 1066.6 | 1247.5 | 0.782
303.15 K, x1 = 1 | 1095.1 | 1249.4 | 0.714
308.15 K, x1 = 0.1423 | 841.161 | 1302.6 | 3.981
308.15 K, x1 = 0.2807 | 869.616 | 1289.5 | 2.919
308.15 K, x1 = 0.4121 | 899.625 | 1276 | 2.174
308.15 K, x1 = 0.5237 | 927.793 | 1263.8 | 1.678
308.15 K, x1 = 0.6158 | 953.186 | 1254.6 | 1.366
308.15 K, x1 = 0.7073 | 980.694 | 1245.7 | 1.119
308.15 K, x1 = 0.7885 | 1007.21 | 1238.7 | 0.956
308.15 K, x1 = 0.8662 | 1034.92 | 1233.4 | 0.833
308.15 K, x1 = 0.9331 | 1060.82 | 1230.9 | 0.752
308.15 K, x1 = 1 | 1089.08 | 1230.9 | 0.677
313.15 K, x1 = 0.1423 | 836.375 | 1285.8 | 3.436
313.15 K, x1 = 0.2807 | 864.727 | 1273.2 | 2.562
313.15 K, x1 = 0.4121 | 894.659 | 1260.3 | 1.934
313.15 K, x1 = 0.5237 | 922.757 | 1248.9 | 1.528
313.15 K, x1 = 0.6158 | 948.078 | 1239.6 | 1.267
313.15 K, x1 = 0.7073 | 975.5 | 1230.7 | 1.037
313.15 K, x1 = 0.7885 | 1001.95 | 1223.5 | 0.891
313.15 K, x1 = 0.8662 | 1029.57 | 1217.8 | 0.76
313.15 K, x1 = 0.9331 | 1055.42 | 1214.3 | 0.681
313.15 K, x1 = 1 | 1083.66 | 1212.6 | 0.617
